In publication PMC10671849, “Synthesis and Evaluation of Marine-Inspired Compounds Result in Hybrids with Antitrypanosomal and Antileishmanial Activities” (Marine Drugs, 2023):
Values after ≈ are worked out from the molar mass of the structure shown. Read-outs that look alike come from different tables or passages of the source.

Columns and labels:
Assay type in all cases: cell-based
[1] = Cytotoxicity MTT assay on PMA-differentiated THP-1 macrophages; conditions: human; PMA-differentiated THP-1 macrophages, 72 h, MTT; 100 to 12.5 µM tested; read-out: Cytotoxicity CC50 (µM) 95% CI, THP-1
Description: A human leukemia cell line, THP-1 (ATCC® TIB-202™), was cultured in RPMI-1640 medium supplemented with 10% heat-inactivated fetal bovine serum (FBS), 2 mM L-glutamine, 100 IU/mL penicillin/streptomycin, and 20 mM HEPES. The cell line was maintained in a humidified incubator at 37 °C and 5% CO2 by subculture every 3 days in 20 mL of media at a concentration of 2 × 10^5/mL in a T75 flask. All cell culture reagents were purchased from Lonza-Bioscience (Morrisville, NC, USA).
The cytotoxicity effect of compounds on THP-1-derived macrophages was assessed by colorimetric MTT assay (3-(4,5-dimethylthiazol-2-yl)-2,5-diphenyl tetrazolium bromide). Briefly, THP-1 cells were suspended in RPMI complete medium at a density of 1 × 10^6 cells/mL and 100 μL/well and were seeded in a 96-well plate and differentiated into macrophages by addition of 40 ng/mL of phorbol-myristate 13-acetate (PMA, Sigma, Saint Louis, MI, USA) for 24 h, followed by replacement with fresh medium for 24 more h. Subsequently, the cells were incubated with 100 μL of compounds ranging from 100 to 12.5 μM after dilution in the RPMI complete medium. Each condition was carried out in quadruplicate. After 72 h of incubation at 37 °C and 5% CO2, the medium was removed, and 200 μL of 0.5 mg/mL MTT solution diluted in RPMI was added. The plates were incubated for an additional 4 h. Then, 160 μL of media was removed, and the same volume of 2-propanol was added. Absorbance was read at 570 nm using a Synergy 2 Multi-Mode Reader (Biotek, Winooski, VT, USA). Cytotoxicity was evaluated by the determination of the CC50 value (drug concentration that reduced the percentage of viable cells by 50%) and calculated by non-linear regression analysis using GraphPad Prism software, version 8.1.1 for Windows (GraphPad Software, San Diego, CA, USA). The results represent the average of at least three independent experiments. For each compound, the selectivity index (SI) was calculated as the ratio between cytotoxicity in THP-1 (CC50, 72 h) and activity against parasites (IC50, 72 h).

[2] = tested on: Escherichia coli ATCC 25922; assay: Antibacterial broth microdilution (CLSI M100-S25), MIC/MLC
Description: (§1) All tested compounds (9a–9d, 10a–10c, 13, 14, and eugenol (1)) were prepared in DMSO (Sigma-Aldrich, St. Louis, MO, USA) at a concentration of 10 mg/mL. The reference drugs used (voriconazole (Sigma-Aldrich, St. Louis, MO, USA) for fungi and quality control; gentamicin (Sigma-Aldrich, St. Louis, MO, USA) for bacterial and quality control) were prepared at 6.4 mg/mL. The stock solutions of the compounds were stored at –20 °C until immediately before the assays and then were diluted in fresh culture medium, RPMI-1640 medium (Biochrom AG, Berlin, Germany) buffered with 3-(N-morpholino)propanesulfonic acid (MOPS—Sigma-Aldrich, St. Louis, MO, USA) for fungi and cation-adjusted Mueller–Hinton broth (MHBII—Becton Dickinson, France) for bacteria, henceforth referred to as RPMI and MHB, respectively.
(§2) Fungal strains, including reference strains and clinical isolates, were used for the study of the antifungal activity: a yeast reference strain from American Type Culture Collection (ATCC), Candida albicans ATCC 10231; filamentous fungi reference strain Aspergillus fumigatus ATCC 240305; and a clinical isolate of dermatophytes Trichophyton rubrum FF5. Candida krusei ATCC 6258 was used as a quality control. All fungal strains were stored in Sabouraud dextrose broth (SDB—Bio-Mèrieux, Marcy L’Etoile, France) with glycerol (20%) at −80 °C and were subcultured in Sabouraud dextrose agar (SDA—Bio-Mèrieux, Marcy L’Etoile, France) for 24–72 h (yeasts and A. fumigatus) or 5–7 days (T. rubrum) before each assay to obtain optimal growth and purity conditions. Two bacteria strains were used, one Gram positive and one Gram negative: Staphylococcus aureus ATCC 25923 and Escherichia coli ATCC 25922, respectively. The bacterial strains were stored in trypticase soy broth (TSB—Biolife, Milan, Italy) with glycerol (10%) at −80 °C and subcultured in Mueller–Hinton agar (MHA—Bio-Mèrieux, Marcy L’Etoile, France) for 24 h before each assay.
(§3) For bacteria, MICs were determined by the broth microdilution method, following the recommendations of the reference method M100-S25 [29].
(§4) Similarly, as previous described, two-fold serial dilutions of each stock solution were prepared using MHB to obtain a range of test concentrations from 16 to 512 μg/mL. Bacterial cell suspensions were prepared from 24-h cultures in saline solution, and the transmittance of cell density was adjusted to 0.5 McFarland standard. Dilutions were performed using MHB to obtain cell final concentrations in the plate of 0.5–2.5 × 10^4 CFU/mL.
(§5) Plates with the prepared serial dilutions of the tested compounds were inoculated with the same volume of the bacterial suspension, and sterility, growth and DMSO controls were included in each assay. Immediately thereafter, the plates were incubated in a humid atmosphere (aerobic environment) for 18–24 h at 36 °C.
(§6) MIC values were considered the minimum concentrations that inhibited the bacterial growth by 100% compared to the growth control. The reference drug, gentamicin, was tested as a quality control, and the results were according to the norms.
(§7) A volume of 10 μL of suspension was collected from wells corresponding to the MIC and the highest following concentration and was deposited in MHA plates. The plates were incubated for 24 h at 36 °C, and the MLC was determined as the lowest concentration at which no bacterial growth was observed.

[3] = tested on: Staphylococcus aureus ATCC 25923; assay: as above
Description: as §1, §2, §3, §4, §5, §6, §7

[4] = ATCC25922, broth microdilution, 16 to 512 µg/mL, 18–24 h at 36 °C, read-out: MIC E. coli
[5] = ATCC25923, broth microdilution, 16 to 512 µg/mL, 18–24 h at 36 °C, read-out: MIC S. aureus

C=CCc1cc(Cn2cc(-c3nc4ccccc4c(=O)o3)nn2)c(O)c(OC)c1 [compound 14, 2-(1-(5-allyl-2-hydroxy-3-methoxybenzyl)-1H-1,2,3-triazol-4-yl)-4H-benzo[d][1,3]oxazin-4-one]
CC50 at 72 h [1]: > 100 µM
MIC [2, 4]: > 512 µg/mL
MIC [3, 5]: > 512 µg/mL

C=CCc1cc(Cn2cc(-c3nc4ccc(OC)cc4c(=O)[nH]3)nn2)c(O)c(OC)c1 [10b, 2-(1-(5-allyl-2-hydroxy-3-methoxybenzyl)-1H-1,2,3-triazol-4-yl)-6-methoxyquinazolin-4(3H)-one]
CC50 at 72 h [1]: > 100 µM
MIC [2, 4]: > 512 µg/mL
MIC [3, 5]: > 512 µg/mL

C=CCc1ccc(O)c(OC)c1 [Eugenol, eugenol, reference compound]
CC50 at 72 h [1]: > 100 µM
MIC [2, 4]: > 512 µg/mL
MIC [3, 5]: > 512 µg/mL

C=CCc1ccc(OCc2cn(CC(=O)Nc3ccccc3C(=O)O)nn2)c(OC)c1 [compound 13, 2-(2-(4-((4-allyl-2-methoxyphenoxy)methyl)-1H-1,2,3-triazol-1-yl)acetamido) benzoic acid]
CC50 at 72 h [1]: > 100 µM
MIC [2, 4]: > 512 µg/mL
MIC [3, 5]: > 512 µg/mL

C=CCc1cc(Cn2cc(-c3nc4ccccc4c(=O)[nH]3)nn2)c(O)c(OC)c1 [10a, 2-(1-(5-allyl-2-hydroxy-3-methoxybenzyl)-1H-1,2,3-triazol-4-yl)quinazolin-4(3H)-one]
CC50 at 72 h [1]: > 100 µM
MIC [2, 4]: > 512 µg/mL
MIC [3, 5]: > 512 µg/mL

C=CCc1cc(Cn2cc(C(=O)Nc3ccc(Cl)cc3C(N)=O)nn2)c(O)c(OC)c1 [9d, 1-(5-allyl-2-hydroxy-3-methoxybenzyl)-N-(2-carbamoyl-4-chlorophenyl)-1H-1,2,3-triazole-4-carboxamide]
CC50 at 72 h [1]: > 100 µM
MIC [2, 4]: > 512 µg/mL
MIC [3, 5]: > 512 µg/mL

C=CCc1cc(Cn2cc(C(=O)Nc3ccc(F)cc3C(N)=O)nn2)c(O)c(OC)c1 [9c, 1-(5-allyl-2-hydroxy-3-methoxybenzyl)-N-(2-carbamoyl-4-fluorophenyl)-1H-1,2,3-triazole-4-carboxamide]
CC50 at 72 h [1]: 45.8 µM
MIC [2, 4]: 256 to 512 µg/mL (≈ 602 to 1200 µM)
MIC ([2]; ATCC25922, second value printed after the MIC of the preceding sentence, read-out: MIC E. coli ("the only MIC evaluated")): > 512 µg/mL
MIC [3, 5]: 256 µg/mL (≈ 602 µM)
MIC ([3]; ATCC25923, second value printed after the MIC of the preceding sentence, read-out: MIC S. aureus ("the only MIC evaluated")): ≤ 512 µg/mL

C=CCc1cc(Cn2cc(-c3nc4ccc(F)cc4c(=O)[nH]3)nn2)c(O)c(OC)c1 [10c, 2-(1-(5-allyl-2-hydroxy-3-methoxybenzyl)-1H-1,2,3-triazol-4-yl)-6-fluoroquinazolin-4(3H)-one]
CC50 at 72 h [1]: > 100 µM
MIC [2, 4]: > 512 µg/mL
MIC [3, 5]: > 512 µg/mL

C=CCc1cc(Cn2cc(C(=O)Nc3ccccc3C(N)=O)nn2)c(O)c(OC)c1 [9a, 1-(5-allyl-2-hydroxy-3-methoxybenzyl)-N-(2-carbamoylphenyl)-1H-1,2,3-triazole-4-carboxamide]
CC50 at 72 h [1]: > 100 µM
MIC [2, 4]: > 512 µg/mL
MIC [3, 5]: > 512 µg/mL

C=CCc1cc(Cn2cc(C(=O)Nc3ccc(OC)cc3C(N)=O)nn2)c(O)c(OC)c1 [9b, 1-(5-allyl-2-hydroxy-3-methoxybenzyl)-N-(2-carbamoyl-4-methoxyphenyl)-1H-1,2,3-triazole-4-carboxamide]
CC50 at 72 h [1]: > 100 µM
MIC [2, 4]: > 512 µg/mL
MIC [3, 5]: > 512 µg/mL
